This note sets out measurements from US10370388B2, “Heterocyclic compounds and methods of their use” (NOVARTIS AG, priority 2012, dated 2019).

Each structure is given as a SMILES string.

One test deals with AT2 receptor (Homo sapiens (Human), UniProt P50052). The test can be described thus: AT2 receptor binding assay ([125I]-CGP42112A, HEK293/AT2 receptor cell membranes). Particulars: displacement of [125I]-CGP42112A. The method, then:
Trypsin-EDTA (for preparation of 100 mL) • Trypsin 0.25 g • 2% EDTA 2 mL • PBS 98 mL • Dissolve trypsin in 2% EDTA and PBS completely; sterilize the solution by passing through a […] membrane filter; store at 4° C. • 2. […] Add slowly with stirring. • Dilute to 1 liter with ddH2O. • Sterilize the medium immediately by filtration. • Store at 4° C. • 3. TE buffer • 20 mM Tris-HCl, pH 7.4, • 5 mM EDTA • 4. Binding Assay Buffer • 50 mM Hepes, pH 7.4 • 5 mM MgCl2 • 1 mM CaCl2 • 0.2% BSA • 5.
Cells were ready for transfection after overnight incubation (the confluence reaches around 80%). • 75 μL Lipofectamine™2000 diluted in 6.25 mL OptiMEM I Reduced Serum Medium, was mixed gently, and incubated at room temperature for 5 minutes. 50 μg expression plasmid DNA diluted in 6.25 mL OptiMEM I Reduced Serum Medium without serum was mixed gently. • After the 5 minute incubation, the diluted DNA was combined with the diluted Lipofectamine™2000 (total volume is 12.5 mL).
Solutions of all compounds were prepared by microplate liquid handling equipment such as Janus or Precision 2000. Compounds, dissolved in DMSO were stored in a Freezer. Compounds were prepared from 30 mM in 100% DMSO.
All the compounds were diluted using Precision 2000 microplate liquid handling equipment. The top concentration of compound was 5 mM with 100% DMSO.
Step 3: Assay Plate Preparation (96 Well Plate)

Another test has as its target AT1 receptor (Homo sapiens (Human), UniProt P30556). In words: AT1 receptor binding assay ([125I]-Sar1-Ile8-Angiotensin II, HEK293/AT1 receptor cell membranes). The note with it: similar assay, at 10 μM. An excerpt: Biological Example 2: AT1 Receptor Binding
The same media, solutions, cell procedures and compound preparation was used as for Biological Example 1 but using HEK293/AT1 Receptor Transient Cells.

For a further test, the system named is NG108-15 neurite cells. In words: AT2 receptor neurite outgrowth assay. Particulars: NG108-15 cells, in the presence of angiotensin II 0.1 μM, compound 0.003-10 μM. The test is classed as cell-based. The method, then: Biological Example 3: AT2 Receptor Neurite Outgrowth Assay
The general methodology of Wallinder (2008) and references cited therein was used to assess the effect of the compounds of the present invention on neurite outgrowth. The assay was adapted for high content screening.
EMA1087 is a known AT2 receptor agonist described as “compound 21” in Wan et al. 2004. PD-123,319 is a known, commercially available AT2 receptor antagonist. The results were analyzed by immunofluorescence quantitative analysis. Neurite outgrowth was quantified with neurite average length using Cellomics software. Results are expressed as the mean±SEM, each conducted in triplicate. Statistical significance, compared with Ang II control: *p<0.05, **p<0.01, and ***p<0.001. NS: no significant difference. ND: not determined. FIGS. 1 to 5 show neurite outgrowth was inhibited by the AT2 receptor antagonists, PD-126,055 and compounds 6, 15, 21 and 28.

AT2 receptor, sequence (P50052 whole entry, species assumed): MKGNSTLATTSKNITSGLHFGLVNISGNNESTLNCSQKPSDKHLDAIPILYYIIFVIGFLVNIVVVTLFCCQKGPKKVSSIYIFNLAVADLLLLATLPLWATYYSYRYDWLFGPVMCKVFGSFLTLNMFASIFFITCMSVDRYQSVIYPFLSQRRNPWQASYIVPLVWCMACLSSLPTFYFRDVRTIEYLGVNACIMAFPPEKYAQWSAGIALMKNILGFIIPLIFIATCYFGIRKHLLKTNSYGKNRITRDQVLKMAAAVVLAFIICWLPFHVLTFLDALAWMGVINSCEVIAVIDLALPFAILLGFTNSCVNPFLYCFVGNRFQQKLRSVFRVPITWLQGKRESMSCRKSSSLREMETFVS
AT1 receptor, sequence (P30556 whole entry, species assumed): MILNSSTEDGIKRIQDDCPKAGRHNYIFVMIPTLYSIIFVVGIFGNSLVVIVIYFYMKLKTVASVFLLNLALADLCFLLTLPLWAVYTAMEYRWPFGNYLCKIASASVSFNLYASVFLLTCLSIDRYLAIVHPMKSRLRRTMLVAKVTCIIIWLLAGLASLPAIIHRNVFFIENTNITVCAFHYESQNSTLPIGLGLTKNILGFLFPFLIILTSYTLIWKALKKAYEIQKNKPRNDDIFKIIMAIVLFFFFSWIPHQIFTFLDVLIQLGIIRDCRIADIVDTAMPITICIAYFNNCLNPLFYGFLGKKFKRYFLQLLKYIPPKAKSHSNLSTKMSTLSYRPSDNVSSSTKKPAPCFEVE

Usually IC50 stands for the concentration that gives 50% inhibition. Compound `CN(CCCc1ccc(F)cc1)[C@H]1C[C@@H](C(N)=O)N(C(=O)C(c2ccccc2)c2ccccc2)C1` [Compound 136, (2S,4S)-1-(2,2-diphenylacetyl)-4-((3-(4-fluorophenyl)propyl)(methyl)amino)pyrrolidine-2-carboxamide] had an IC50 on AT2 receptor of 89 nM. Moreover, the AT1 receptor binding entry on AT1 receptor was “—: No significant inhibition of binding of the radiolabelled ligand even at top concentration tested (10 μM). Compounds 6, 112, 136 and 138 were also analysed in a similar assay and showed no AT1 receptor binding at 10 μM”. Regarding `O=C(O)C1Cc2c(OCc3ccccc3)cccc2N1C(=O)C(c1ccccc1)c1ccccc1` (stereo not drawn) [Compound 15, 4-(benzyloxy)-1-(2,2-diphenylacetyl)indoline-2-carboxylic acid], the “neurite outgrowth (neurite average length)” value in the test on NG108-15 neurite cells was “inhibited”.

In turn, `CN(CCCc1ccc(F)cc1)[C@H]1C[C@@H](C#N)N(C(=O)C(c2ccccc2)c2ccccc2)C1` [Compound 137, (2S,4S)-1-(2,2diphenylacetyl)-4-((3-(4-fluorophenyl)propyl)(methyl)amino)pyrrolidine-2-carbonitrile] came in with an IC50 at AT2 receptor of 173 nM. This lies in the sub-micromolar range.

With `CN(C)S(=O)(=O)NC(=O)[C@@H]1C[C@H](OCCCc2ccccc2)CN1C(=O)C(c1ccccc1)c1ccccc1` [Compound 112, (2S,4S)—N—(N,N-dimethylsulfamoyl)-1-(2,2-diphenylacetyl)-4-(3-phenylpropoxy)pyrrolidine-2-carboxamide], the AT1 receptor binding result at AT1 receptor is “—: No significant inhibition of binding of the radiolabelled ligand even at top concentration tested (10 μM). Compounds 6, 112, 136 and 138 were also analysed in a similar assay and showed no AT1 receptor binding at 10 μM”. Regarding `O=C(O)[C@@H]1C[C@H](c2sccc2-c2ccccc2)CN1C(=O)C(c1ccccc1)c1ccccc1` [Compound 107, (2S,4S)-1-(2,2-diphenylacetyl)-4-(3-phenylthiophen-2-yl)-pyrrolidine-2-carboxylic acid], the half-maximal inhibitory concentration (IC50) on AT2 receptor was found to be 461 nM.
